In this experiment the test system is cultured buccal mucosa cells from ACM patients and gene carriers. The experiment can be described thus: Immunostaining of cultured buccal mucosa cells after incubation with SB216763. Set-up: dose or concentration left out as unconfirmed. In kind it is cell-based, human. Conditions: cultured buccal mucosa cells from ACM patients and unaffected gene carriers, confocal microscopy. On the procedure: The oral cavity was first rinsed thoroughly with antiseptic mouthwash. Buccal mucosa cells were collected with a sterile toothbrush which was lightly scraped on the inside of both cheeks for ˜2 minutes. The oral cavity was washed with 15 ml of sterile saline which was collected in a centrifuge tube. The toothbrush itself was washed in an additional 10 ml of saline. The same process was repeated one or more times. The resultant cell suspension was centrifuged at 3000 g for 5 minutes. The pellet was washed once in sterile PBS, re-centrifuged and subsequently re-suspended in 20 ml of PBS supplemented with 5% penicillin/streptomycin and 7 mM fungizone for 30 minutes. The cells were then washed twice in PBS, reconstituted in KGM™-CD chemically defined keratinocyte growth medium (LONZA) and seeded on matrigel-coated chamber slides, where they were maintained at 37° C., 5% CO2 for up to 7 days. Selected cultures were incubated with SB216763 ([…]) for 24 hours prior to immunostaining. Buccal mucosa cultures were washed in PBS, fixed in 4% paraformaldehyde and, after being washed 3 additional times in PBS, were immunostained as described above with mouse monoclonal anti-plakoglobin (Sigma) or mouse monoclonal anti-Cx43 (Millipore) primary antibodies. All immunostained preparations were imaged at 40× using a ZEISS inverted confocal microscope.

For `Cn1cc(C2=C(c3ccc(Cl)cc3Cl)C(=O)NC2=O)c2ccccc21` [SB216763], the Cx43 signal distribution result is “normalized” and the plakoglobin signal distribution result is “normalized”.

These data come from patent publication US10317417B2, “Buccal cell diagnosis of arrhythmogenic cardiomyopathy (ACM)” (Beth Israel Deaconess Medical Center, Inc., priority 2015, dated 2019).
